The text below walks through data of US6784137B2, “6-aryl-4-aminopicolinates and their use as herbicides” (Dow AgroSciences LLC, priority 2001, dated 2004).

For orientation: melting point means the temperature, or range, at which the solid turns liquid. As to `Nc1cc(-c2cncnc2)nc(C(=O)O)c1Cl` [Compound 228, 4-Amino-3-chloro-6-(5-pyrimidinyl)pyridine-2-carboxylic acid], the melting point stood at 180 °C.
For `Cn1nccc1-c1cc(N)c(Cl)c(C(=O)O)n1` [Compound 223, 4-Amino-3-chloro-6-(1-methyl-1H-pyrazol-5-yl)pyridine-2-carboxylic acid] the value was 230 to 232 °C.
In the case of `Cc1ccc(-c2cc(N)c(Cl)c(C(=O)O)n2)s1` [Compound 218, 4-Amino-3-chloro-6-(5-methyl-2-thienyl)pyridine-2-carboxylic acid] it was 175 to 176 °C.
For `Nc1cc(-c2ccc3c(c2Cl)OCO3)nc(C(=O)O)c1Cl` [Compound 187, 4-Amino-3-chloro-6-(2-chloro-3,4-methylenedioxyphenyl)pyridine-2-carboxylic acid] the value was 226 to 227 °C; for `CCOC(=O)c1nc(-c2ccc(Cl)cc2)c(F)c(N)c1Cl` [Compound 252, Ethyl 4-amino-3-chloro-5-fluoro-6-(4-chlorophenyl)pyridine-2-carboxylate], 88 to 89 °C.
Consider `Nc1cc(-c2cc(F)cc(F)c2)nc(C(=O)O)c1Cl` [Compound 167, 4-Amino-3-chloro-6-(3,5-difluorophenyl)pyridine-2-carboxylic acid], for which the melting point lay within 182 to 183 °C.
With `COC(=O)c1nc(-c2nnn(C)n2)cc(N)c1Cl` [Compound 11, Methyl 4-amino-3-chloro-6-(2-methyl-2H-tetrazol-5-yl)pyridine-2-carboxylate], the melting point was in the range of 250 to 252 °C.
For `COc1ccc(-c2cc(N)c(Cl)c(C(=O)O)n2)cc1C` [Compound 193, 4-Amino-3-chloro-6-(4-methoxy-3-methylphenyl)pyridine-2-carboxylic acid] the value was 131 °C.
In the case of `COC(=O)c1nc(-c2ccc(CF)cc2)cc(N)c1Cl` [Compound 243, methyl 4-amino-3-chloro-6-(4-fluoromethylphenyl)pyridine-2-carboxylate] it was 95 to 97 °C; in that of `CC(=O)c1ccc(-c2cc(N)c(Cl)c(C(=O)O)n2)cc1` [Compound 144, 4-Amino-3-chloro-6-(4-acetylphenyl)pyridine-2-carboxylic acid], 177 to 178 °C.
In the case of `COC(=O)c1nc(-c2ccc(OC)c(C)c2)cc(N)c1Cl` [Compound 80, Methyl 4-amino-3-chloro-6-(4-methoxy-3-methylphenyl)pyridine-2-carboxylate] it was 158 °C; in that of `Nc1cc(-c2nc3ccccc3o2)nc(C(=O)O)c1Cl` [Compound 226, 4-Amino-3-chloro-6-(2-benzoxazolyl)pyridine-2-carboxylic acid], 262 °C (dec.); in that of `Nc1cc(-c2ccccc2F)nc(C(=O)O)c1Cl` [Compound 142, 4-Amino-3-chloro-6-(2-fluorophenyl)pyridine-2-carboxylic acid], 121 to 122 °C.
Consider `COc1cc(Cl)ccc1-c1cc(N)c(Cl)c(C(=O)O)n1` [Compound 186, 4-Amino-3-chloro-6-(4-chloro-2-methoxyphenyl)pyridine-2-carboxylic acid], for which the melting point lay within 182 to 183 °C.
Regarding `Nc1cc(-c2ccccn2)nc(C(=O)O)c1Cl` [Compound 214, 4-Amino-3-chloro-6-(2-pyridinyl)pyridine-2-carboxylic acid], the melting point is 185 °C (dec.).
In the case of `Nc1cc(-c2ccc(Cl)cc2C(F)(F)F)nc(C(=O)O)c1Cl` [Compound 182, 4-Amino-3-chloro-6-(4-chloro-2-(trifluoromethyl)phenyl)pyridine-2-carboxylic acid] it was 178 to 180 °C.
In turn, `COC(=O)c1nc(-c2cc3ccccc3s2)cc(N)c1Cl` [Compound 125, Methyl 4-amino-3-chloro-6-(2-benzothienyl)pyridine-2-carboxylate] registered a melting point of 177 to 178 °C.
